Test results from patent publication US8426408B2, “Pyrimidine inhibitors of kinases” (AbbVie Inc., priority 2009, dated 2013).

Biological target: KDR (Homo sapiens, UniProt P35968)
Assay: KDR cellular assay (KDR receptor phosphorylation ELISA)
Type: cell-based
Set-up: expressed in transfected cells; host or cells: 3T3 (embryonic mouse) cells
Conditions: KDR transfected 3T3 (embryonic mouse) cells, VEGF stimulated; read-out: IC50 inhibition of KDR phosphorylation
How it was run: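 KDR-transfected mouse 3T3 cells treated 20 min at 37° C with half-log compound dilutions, then stimulated 10 min with VEGF (100 ng/ml solution). Lysates captured on anti-KDR plates; phosphorylation by biotin antibody/streptavidin-HRP ELISA at 450 nm. IC50 by non-linear regression.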

Chain of KDR (P35968 20-1356): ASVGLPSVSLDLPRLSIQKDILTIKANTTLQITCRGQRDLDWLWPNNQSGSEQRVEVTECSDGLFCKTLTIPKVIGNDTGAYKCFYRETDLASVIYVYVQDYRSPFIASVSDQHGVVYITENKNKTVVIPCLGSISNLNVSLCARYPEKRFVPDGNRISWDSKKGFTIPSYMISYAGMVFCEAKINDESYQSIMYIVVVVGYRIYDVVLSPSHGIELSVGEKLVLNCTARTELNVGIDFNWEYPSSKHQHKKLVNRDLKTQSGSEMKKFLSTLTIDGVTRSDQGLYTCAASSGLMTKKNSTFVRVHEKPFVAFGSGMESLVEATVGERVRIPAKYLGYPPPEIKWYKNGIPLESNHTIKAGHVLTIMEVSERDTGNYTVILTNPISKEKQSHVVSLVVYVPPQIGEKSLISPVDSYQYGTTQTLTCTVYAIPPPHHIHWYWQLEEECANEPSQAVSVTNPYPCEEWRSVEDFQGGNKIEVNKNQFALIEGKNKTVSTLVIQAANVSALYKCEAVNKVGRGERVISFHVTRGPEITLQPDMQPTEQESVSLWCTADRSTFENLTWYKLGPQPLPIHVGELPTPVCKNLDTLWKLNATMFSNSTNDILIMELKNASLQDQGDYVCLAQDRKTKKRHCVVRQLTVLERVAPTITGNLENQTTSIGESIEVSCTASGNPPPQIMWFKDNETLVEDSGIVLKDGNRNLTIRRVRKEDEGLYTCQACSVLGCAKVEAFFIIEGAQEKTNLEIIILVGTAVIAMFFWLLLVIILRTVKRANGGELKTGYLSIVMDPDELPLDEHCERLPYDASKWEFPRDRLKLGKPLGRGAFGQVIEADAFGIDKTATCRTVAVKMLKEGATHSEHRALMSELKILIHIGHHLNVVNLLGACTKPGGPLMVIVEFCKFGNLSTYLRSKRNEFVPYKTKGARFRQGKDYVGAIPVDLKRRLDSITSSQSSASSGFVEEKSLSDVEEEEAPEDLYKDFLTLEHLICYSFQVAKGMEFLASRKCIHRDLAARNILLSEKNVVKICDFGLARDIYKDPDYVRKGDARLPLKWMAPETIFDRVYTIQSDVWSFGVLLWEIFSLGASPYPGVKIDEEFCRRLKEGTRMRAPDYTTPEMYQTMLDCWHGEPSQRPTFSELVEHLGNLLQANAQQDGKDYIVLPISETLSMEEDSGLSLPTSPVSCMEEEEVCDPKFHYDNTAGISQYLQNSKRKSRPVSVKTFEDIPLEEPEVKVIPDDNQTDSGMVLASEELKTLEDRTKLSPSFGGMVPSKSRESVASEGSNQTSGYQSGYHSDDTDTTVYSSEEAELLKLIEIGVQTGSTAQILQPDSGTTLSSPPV

| IC50 [nM] | SMILES |
| --- | --- |
| < 100 | CN1CCN(CCn2cc(Nc3ncc(Br)c(N[C@H]4[C@@H](C(N)=O)[C@@H]5C=C[C@H]4C5)n3)cn2)CC1 [Example 94, (1S,2S,3R,4R)-3-{[5-bromo-2-({1-[2-(4-methylpiperazin-1-yl)ethyl]-1H-pyrazol-4-yl}amino)pyrimidin-4-yl]amino}bicyclo[2.2.1]hept-5-ene-2-carboxamide] |
| < 100 | NC(=O)[C@@H]1[C@H](Nc2nc(Nc3cnn(C4CCNCC4)c3)ncc2Br)[C@H]2C=C[C@@H]1C2 [Example 95, (1S,2S,3R,4R)-3-[(5-bromo-2-{[1-(piperidin-4-yl)-1H-pyrazol-4-yl]amino}pyrimidin-4-yl)amino]bicyclo[2.2.1]hept-5-ene-2-carboxamide] |
| < 100 | COCCn1cc(Nc2ncc(Cl)c(N[C@H]3[C@@H](C(N)=O)[C@@H]4C=C[C@H]3C4)n2)cn1 [Example 96, (1S,2S,3R,4R)-3-[(5-chloro-2-{[1-(2-methoxyethyl)-1H-pyrazol-4-yl]amino}pyrimidin-4-yl)amino]bicyclo[2.2.1]hept-5-ene-2-carboxamide] |
